Data on one compound can be found in patent US20240285670A1, “THERAPEUTIC TREATMENT OF TUMORS BY BLOCKING THE HEME SYNTHESIS-EXPORT AXIS” (Università degli Studi di Torino, priority 2021, published 2024).

One assay concerns SHSY5Y cells. Put plainly: Flow cytometric analysis of apoptosis in SHSY5Y cells. The conditions noted are these: 5 mM ALA for 72 hours. The format is cell-based, human.
For a further assay, the system named is ALAS1. Put plainly: qRT-PCR analysis of ALAS1 expression in SHSY5Y cells. The conditions noted are these: 5 mM ALA for 15 hours vs non-treated. The assay is classed as cell-based, human. As to the method:
(A) Heme content in SHSY5Y cells non-treated (NT) or treated with 5 mM ALA for 15 hours. Values are expressed as pmol heme/mg protein. Data represent mean±SEM, n=3; *=P<0.05. (B, C) qRT-PCR analysis of the expression of ALAS1 (B) and FLVCR1a (C) in SHSY5Y cells non-treated (NT) or treated with 5 mM ALA for 15 hours. Transcript abundance, normalized to beta-actin mRNA expression, is expressed as a fold increase over a calibrator sample. Data represent mean±SEM, n=4. For statistical analyses, an unpaired Student's t-test was used; *p<0.05. (D) qRT-PCR analysis of the expression of ALAS1 in SKCO1 cells untreated (NT) or treated with 5 mM ALA for 24 hours. Transcript abundance, normalized to beta-actin mRNA expression, is expressed as a fold increase over a calibrator sample. Data represent mean±SEM, n=5. […] Band intensities were measured by densitometry and normalized to beta-actin expression. […] (F) Proliferation of SHSY5Y cells assessed by crystal violet staining at different time points (starting from the day after plating, named “day 0”). Treatment with 5 mM ALA occurred at “day 0” and cells were monitored until the end of the experiment without medium refresh. […] (G) SKCO1 cells viability measured by the CellTiter-Fluor Cell Viability Assay (Promega, Madison, WI USA, catalog n°G6080) at different time points, starting from the day after plating (named “day 0”), as a readout of cell proliferation. […]
In general terms: In qPCR the cycle at which signal appears reflects the starting amount.

In the case of `Cl.NCC(=O)CCC(=O)O` [5-ALA, 5-Aminolevulinic acid hydrochloride], the apoptosis entry in the assay on SHSY5Y cells was “increased apoptosis”. In addition, in the assay with ALAS1, the ALAS1 transcript levels result is given as “reduced”.
